According to patent publication US8097585B2, “Methods of treating inflammation by administration of heme oxygenase-1 and products of heme degradation” (priority 2002, dated 2012):
Where a name gives a salt, the structure may show the parent alone.

Tests used:
[1] = tested on: B6AF1 splenocytes or purified T cells; assay: Con A and anti-CD3 mAb mediated proliferation assay; assay type: cell-based, mouse
Procedure: Con A and anti-CD3 mAb mediated proliferation assay. B6AF1 splenocytes or purified T cells were prepared according to the herein-described method and used as responder cells. Responders (2.5×10^5/well) were stimulated with either Con A (1 μg/ml) or anti-CD3 mAb (1 μg/ml) and cultured in a 96 well round bottom plates. Purified T cells (5×10^4/well) were cultured in anti-CD3 mAb (10 μg/ml) coated 96 well flat bottom plates in the presence of anti-CD28 mAb (1 μg/ml). Cells were cultured with or without biliverdin (at various concentrations) for 48 hours at 37° C., 95% air with 5% CO2. They were pulsed with ^3H-thymidine (1 μCi/well) 16 hours before termination of cell culture and ^3H-thymidine incorporation was measured by using a β-counter. These proliferation assays were performed in triplicate and were repeated 3 times.

[2] = tested on: B6AF1 splenocytes; assay: Mixed lymphocyte culture (irradiated DBA/2 splenocytes as stimulators) in vitro; assay type: cell-based, mouse; settings: biliverdin 10 μM
Procedure: Mixed lymphocyte culture (MLC). Irradiated (25Gy, ^137Cs) DBA/2 splenocytes (5×10^5/well) were co-cultured with responders (5×10^5/well) in a 96 well round bottom plates for 3 days at 37° C., 95% air with 5% CO2. When using cells from cardiac recipients as responders, the co-culture period was 3 days without any further in vitro treatment. ^3H-thymidine (1 μCi/well) was added 16 hours before termination of cell culture, and ^3H-thymidine incorporation was measured.

[3] = tested on: TNF-α; assay: Real time RT-PCR of graft muscularis after SITx, TNF-α; assay type: in vivo, LEW rats; settings: BV treatment, 4 hours
Procedure: (§1) Small Intestinal Transplantation. Orthotopic small intestinal transplantation (SITx) was performed in syngeneic Lewis rats. SITx with caval drainage was performed using a previously described procedure (Murase et al., in Handbook of Animal Models in Transplantation Research, Cramer et al., Eds. CRC Press, Boca Raton, Fla., pp. 203-213 (1994)). […] The graft was perfused via the aortic segment with 5 ml chilled Ringer's lactate solution, and the intestinal lumen was irrigated with 20 ml of cold saline solution containing 0.5% neomycin-sulfate (Sigma, St. Louis, Mo.). […]
(§2) SYBR green real time RT-PCR. The effects of administration of biliverdin on transplant-induced pro-inflammatory and anti-inflammatory gene expression were assessed in muscularis extracts by RT-PCR Biliverdin ([…], i.p.) was administered to both the donor and recipient three hours preoperatively. […] Equal aliquots (5 μg) of total RNA from each sample were quantified by spectrophotometry (wavelength […]) and aliquoted at a concentration of 40 ng/μl. Peak mRNA expression was quantified in duplicate by SYBR Green two-step, real-time RT-PCR. […] Real-time PCR data were plotted as the ΔRn fluorescence signal versus the cycle number. […] Quantification of mRNA expression was normalized to GAPDH and calculated relative to control using the comparative CT method (Schmittgen et al., J. Biochem. Biophys. Methods 46(1-2):69-8, 2000). […]

[4] = tested on: ICAM-1; assay: Real time RT-PCR of graft muscularis after SITx, ICAM-1; assay type: in vivo, LEW rats; settings: BV treatment
Procedure: as §1, §2

[5] = tested on: IL-6; assay: Serum IL-6 (ELISA), SITx with preserved intestine; assay type: in vivo, LEW rats
Procedure: Detection of Serum Mediators. Serum samples from the recipients transplanted with preserved intestine were taken at 3 and 12 hours after reperfusion and stored at […] until evaluation. Serum IL-6 was determined using a rat enzyme-linked immunoassay (ELISA) kits as described by the manufacturer (R & D Systems, Inc., Cambridge, Mass.). To monitor the production of nitric oxide, the stable end products of NO metabolism, serum nitrite/nitrate levels, were measured 12 hours after engraftment using a commercially available test kit (Cayman, Ann Arbor, Mich.). In this assay system, nitrate is reduced to nitrite using nitrate reductase, and the nitrite concentration of the sample is subsequently measured using the Griess reaction.

C=CC1=C(C)/C(=C/C2=NC(=C\c3[nH]c(/C=C4\NC(=O)C(C)=C4C=C)c(C)c3CCC(=O)O)/C(CCC(=O)O)=C2C)NC1=O [biliverdin, biliverdin dihydrochloride]
proliferation of purified T cells ([1]; anti-CD3 mAb plus anti-CD28 mAb co-stimulation): suppressed
ConA or anti-CD3 mAb driven T cell proliferation ([1]; biliverdin 50 μM): significant suppressive effect
ConA or anti-CD3 mAb driven T cell proliferation ([1]; biliverdin 100 μM): significant suppressive effect
alloantigen mediated T cell activation (proliferation) [2]: significant suppressive effect
upregulation of TNF-α mRNA caused by transplantation [3]: did not significantly change
reduction of ICAM-1 expression in the graft [4]: up to 30%
serum IL-6 protein concentration ([5]; 3 hours after engraftment, untreated transplant 5131.4±3169.1): 1652 ± 306.9 pg/mL
serum IL-6 concentrations ([5]; BV treated controls (no transplant)): low
